From PMC12615753, “Glutathione as a taste modulator: molecular mechanisms of interaction with umami and sweet taste receptors” (Food Chemistry: Molecular Sciences, 2025)

Biological target: T1, hTAS1R1 S306A/rTAS1R3 (Homo sapiens, UniProt Q7RTX1, S306A)
T1 construct: expressed in transfected cells; host or cells: HEK293T/17 (ATCC CRL-11268)
T1 sequence (Q7RTX1 21-841 S306A): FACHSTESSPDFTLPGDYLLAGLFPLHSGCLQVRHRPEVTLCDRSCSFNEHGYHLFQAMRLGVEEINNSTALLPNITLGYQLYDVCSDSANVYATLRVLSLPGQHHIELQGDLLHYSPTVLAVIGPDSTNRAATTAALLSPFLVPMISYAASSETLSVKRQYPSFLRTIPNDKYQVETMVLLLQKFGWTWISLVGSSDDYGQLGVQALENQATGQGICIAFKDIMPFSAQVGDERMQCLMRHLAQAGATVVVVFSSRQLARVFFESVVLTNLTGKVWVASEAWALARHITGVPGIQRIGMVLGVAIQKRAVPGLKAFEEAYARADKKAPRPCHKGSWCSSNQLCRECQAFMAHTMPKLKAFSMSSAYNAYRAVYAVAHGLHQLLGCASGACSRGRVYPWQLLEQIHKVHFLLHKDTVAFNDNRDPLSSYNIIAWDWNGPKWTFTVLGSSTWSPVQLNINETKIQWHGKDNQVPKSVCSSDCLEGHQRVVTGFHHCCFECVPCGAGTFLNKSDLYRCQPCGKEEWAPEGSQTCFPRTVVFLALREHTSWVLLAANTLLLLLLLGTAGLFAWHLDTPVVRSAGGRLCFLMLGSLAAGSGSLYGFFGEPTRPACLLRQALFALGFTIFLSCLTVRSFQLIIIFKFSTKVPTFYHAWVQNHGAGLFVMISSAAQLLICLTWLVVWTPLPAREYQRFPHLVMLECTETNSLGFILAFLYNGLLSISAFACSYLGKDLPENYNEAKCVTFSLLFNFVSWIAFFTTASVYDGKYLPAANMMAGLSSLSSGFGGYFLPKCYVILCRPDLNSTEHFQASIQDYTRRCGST
T1 sequence (Q923K1 21-858 partner): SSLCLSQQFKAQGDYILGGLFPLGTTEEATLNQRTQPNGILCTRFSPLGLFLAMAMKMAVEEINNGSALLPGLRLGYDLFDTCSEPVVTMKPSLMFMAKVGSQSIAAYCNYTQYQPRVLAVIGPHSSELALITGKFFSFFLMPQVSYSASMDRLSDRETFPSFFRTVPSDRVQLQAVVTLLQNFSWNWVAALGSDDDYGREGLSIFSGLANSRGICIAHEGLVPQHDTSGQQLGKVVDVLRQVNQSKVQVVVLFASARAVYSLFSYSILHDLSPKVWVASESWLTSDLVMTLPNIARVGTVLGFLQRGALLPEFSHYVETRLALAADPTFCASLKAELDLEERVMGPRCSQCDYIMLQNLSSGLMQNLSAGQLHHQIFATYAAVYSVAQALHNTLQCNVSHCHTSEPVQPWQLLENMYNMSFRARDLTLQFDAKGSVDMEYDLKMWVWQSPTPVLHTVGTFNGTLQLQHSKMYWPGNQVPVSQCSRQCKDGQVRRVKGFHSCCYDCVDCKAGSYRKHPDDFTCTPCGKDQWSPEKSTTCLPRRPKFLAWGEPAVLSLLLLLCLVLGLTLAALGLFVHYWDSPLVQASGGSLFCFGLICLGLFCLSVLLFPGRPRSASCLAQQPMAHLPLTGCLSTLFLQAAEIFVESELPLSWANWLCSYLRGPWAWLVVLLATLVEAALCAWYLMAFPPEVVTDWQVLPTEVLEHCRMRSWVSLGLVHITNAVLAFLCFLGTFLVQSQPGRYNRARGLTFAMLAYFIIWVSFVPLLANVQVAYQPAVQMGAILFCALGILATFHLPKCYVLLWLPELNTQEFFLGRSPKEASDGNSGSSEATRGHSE
Test: Calcium assay, hTAS1R1 mutant co-expressed with rTAS1R3
Type: cell-based, rat
Description: Chimeric Gα proteins, such as Gα16Gust44, Gα16Gi3 or Gα15i2, are widely used in the functional expression of TAS1R receptors ([Backes et al., 2015]; [Suess et al., 2015]; [Toda et al., 2021], [Toda et al., 2013], [Toda et al., 2018]; [Zhang et al., 2008]). Chimeric Gα15i2 (([Toda et al., 2013]), Supplementary data) was generated by replacing the last five residues of the C-terminal tail of rat Gα15i2 (EINLL) (UniProt number G3V6N8; https://www.uniprot.org/uniprot/) with the counterpart sequence from human GNAI2 (DCGLF) (UniProt number P04899-1) and cloning into the pcDNA3.1/Hygro vector (Invitrogen, Thermo Fisher Scientific, Illkirch, France) between the HindIII and NotI restriction sites, resulting in the plasmid pcDNA3.1-Gα15i2. Chimeric Gα16Gust44 construct have already been reported ([Raliou et al., 2011]). Briefly, Gα16Gust44 was generated by replacing the C-terminal of Gα16 with the C-terminal 44 residues of gustducin. As previously described, hTAS1R1 was amplified from human fungiform papillae cDNA and cloned and inserted into pcDNA3 (Invitrogen), generating pcDNA3-TAS1R1-WT (wild-type) ([Raliou et al., 2011]). […] The cDNA coding region of rTAS1R3 was synthesized with optimized-codon usage for human expression (Genewiz) and was cloned and inserted into the mammalian pcDNA4/myc-HisA (Invitrogen) expression vector between the EcoRI and NotI restriction sites, resulting in the plasmid pcDNA4-rTAS1R3. […] The sequence integrity of all the plasmid constructs was verified via automated DNA sequencing (Genewiz).
The hTAS1R1 mutants were co-expressed with the rTAS1R3 subunit in HEK293 cells. […] As a control, the functionality of the mutated receptors was checked after stimulation with S807 (Fig. S8), which interacts with TAS1R1-TMD ([Zhang et al., 2008]).

Compound | EC50 [mM] | effect of the added compound (1 mM) on the response to L-Glu (S306A) | response to the agonist alone, vs WT (S306A)
N[C@@H](CCC(=O)N[C@@H](CS)C(=O)NCC(=O)O)C(=O)O [GSH, γ-L-glutamyl-L-cysteinyl-glycine] | > 30 | did not affect | fully abolished
CCCC(CCC)NC(=O)c1ccc2c(c1)OCO2 [S807, N-(heptan-4-yl)benzo[d][1,3]dioxole-5-carboxamide, reference compound] |  |  | strongly affected
